Measured values reported in the NIST ThermoML archive (doi:10.1016/j.tca.2012.05.025).
Numbers after ± are expanded uncertainties.

Test: refractive index (Na D-line) (dimensionless); xn = mol fraction of the nth substance listed
Settings: 101 kPa, Liquid, Standard Abbe refractometry

CN(C)CCCO [3-dimethylamino-1-propanol] + O
refractive index (293.15 K, x1 = 0.098): 1.3569 ± 0.005
refractive index (293.15 K, x1 = 0.197): 1.3653 ± 0.005
refractive index (293.15 K, x1 = 0.293): 1.3763 ± 0.005
refractive index (293.15 K, x1 = 0.398): 1.4033 ± 0.005
refractive index (293.15 K, x1 = 0.5): 1.4193 ± 0.005
refractive index (293.15 K, x1 = 0.598): 1.4284 ± 0.005
refractive index (293.15 K, x1 = 0.7): 1.4345 ± 0.005
refractive index (293.15 K, x1 = 0.795): 1.4393 ± 0.005
refractive index (293.15 K, x1 = 0.9): 1.443 ± 0.005
refractive index (293.15 K, x1 = 1): 1.4368 ± 0.005
refractive index (298.15 K, x1 = 0.098): 1.3562 ± 0.005
refractive index (298.15 K, x1 = 0.197): 1.3644 ± 0.005
refractive index (298.15 K, x1 = 0.293): 1.3752 ± 0.005
refractive index (298.15 K, x1 = 0.398): 1.4018 ± 0.005
refractive index (298.15 K, x1 = 0.5): 1.4172 ± 0.005
refractive index (298.15 K, x1 = 0.598): 1.4268 ± 0.005
refractive index (298.15 K, x1 = 0.7): 1.4329 ± 0.005
refractive index (298.15 K, x1 = 0.795): 1.4377 ± 0.005
refractive index (298.15 K, x1 = 0.9): 1.4405 ± 0.005
refractive index (298.15 K, x1 = 1): 1.4347 ± 0.005
refractive index (303.15 K, x1 = 0.098): 1.35534 ± 0.005
refractive index (303.15 K, x1 = 0.197): 1.3635 ± 0.005
refractive index (303.15 K, x1 = 0.293): 1.3742 ± 0.005
refractive index (303.15 K, x1 = 0.398): 1.4004 ± 0.005
refractive index (303.15 K, x1 = 0.5): 1.4155 ± 0.005
refractive index (303.15 K, x1 = 0.598): 1.4251 ± 0.005
refractive index (303.15 K, x1 = 0.7): 1.431 ± 0.005
refractive index (303.15 K, x1 = 0.795): 1.4359 ± 0.005
refractive index (303.15 K, x1 = 0.9): 1.439 ± 0.005
refractive index (303.15 K, x1 = 1): 1.4326 ± 0.005
refractive index (308.15 K, x1 = 0.098): 1.3545 ± 0.005
refractive index (308.15 K, x1 = 0.197): 1.3625 ± 0.005
refractive index (308.15 K, x1 = 0.293): 1.3731 ± 0.005
refractive index (308.15 K, x1 = 0.398): 1.3987 ± 0.005
refractive index (308.15 K, x1 = 0.5): 1.4139 ± 0.005
refractive index (308.15 K, x1 = 0.598): 1.4233 ± 0.005
refractive index (308.15 K, x1 = 0.7): 1.4291 ± 0.005
refractive index (308.15 K, x1 = 0.795): 1.4338 ± 0.005
refractive index (308.15 K, x1 = 0.9): 1.4369 ± 0.005
refractive index (308.15 K, x1 = 1): 1.4305 ± 0.005
refractive index (313.15 K, x1 = 0.098): 1.3537 ± 0.005
refractive index (313.15 K, x1 = 0.197): 1.3615 ± 0.005
refractive index (313.15 K, x1 = 0.293): 1.3719 ± 0.005
refractive index (313.15 K, x1 = 0.398): 1.3972 ± 0.005
refractive index (313.15 K, x1 = 0.5): 1.4121 ± 0.005
refractive index (313.15 K, x1 = 0.598): 1.4216 ± 0.005
refractive index (313.15 K, x1 = 0.7): 1.4273 ± 0.005
refractive index (313.15 K, x1 = 0.795): 1.4319 ± 0.005
refractive index (313.15 K, x1 = 0.9): 1.4349 ± 0.005
refractive index (313.15 K, x1 = 1): 1.4285 ± 0.005
refractive index (318.15 K, x1 = 0.098): 1.3528 ± 0.005
refractive index (318.15 K, x1 = 0.197): 1.3605 ± 0.005
refractive index (318.15 K, x1 = 0.293): 1.3708 ± 0.005
refractive index (318.15 K, x1 = 0.398): 1.3956 ± 0.005
refractive index (318.15 K, x1 = 0.5): 1.4105 ± 0.005
refractive index (318.15 K, x1 = 0.598): 1.4199 ± 0.005
refractive index (318.15 K, x1 = 0.7): 1.4255 ± 0.005
refractive index (318.15 K, x1 = 0.795): 1.4302 ± 0.005
refractive index (318.15 K, x1 = 0.9): 1.4324 ± 0.005
refractive index (318.15 K, x1 = 1): 1.4264 ± 0.005
refractive index (323.15 K, x1 = 0.098): 1.3517 ± 0.005
refractive index (323.15 K, x1 = 0.197): 1.3593 ± 0.005
refractive index (323.15 K, x1 = 0.293): 1.3696 ± 0.005
refractive index (323.15 K, x1 = 0.398): 1.3947 ± 0.005
refractive index (323.15 K, x1 = 0.5): 1.4088 ± 0.005
refractive index (323.15 K, x1 = 0.598): 1.418 ± 0.005
refractive index (323.15 K, x1 = 0.7): 1.4239 ± 0.005
refractive index (323.15 K, x1 = 0.795): 1.4286 ± 0.005
refractive index (323.15 K, x1 = 0.9): 1.4315 ± 0.005
refractive index (323.15 K, x1 = 1): 1.4243 ± 0.005
refractive index (328.15 K, x1 = 0.098): 1.3506 ± 0.005
refractive index (328.15 K, x1 = 0.197): 1.3582 ± 0.005
refractive index (328.15 K, x1 = 0.293): 1.3682 ± 0.005
refractive index (328.15 K, x1 = 0.398): 1.3925 ± 0.005
refractive index (328.15 K, x1 = 0.5): 1.4072 ± 0.005
refractive index (328.15 K, x1 = 0.598): 1.4164 ± 0.005
refractive index (328.15 K, x1 = 0.7): 1.4226 ± 0.005
refractive index (328.15 K, x1 = 0.795): 1.427 ± 0.005
refractive index (328.15 K, x1 = 0.9): 1.4301 ± 0.005
refractive index (328.15 K, x1 = 1): 1.4222 ± 0.005
refractive index (333.15 K, x1 = 0.098): 1.3502 ± 0.005
refractive index (333.15 K, x1 = 0.197): 1.3571 ± 0.005
refractive index (333.15 K, x1 = 0.293): 1.3671 ± 0.005
refractive index (333.15 K, x1 = 0.398): 1.391 ± 0.005
refractive index (333.15 K, x1 = 0.5): 1.4056 ± 0.005
refractive index (333.15 K, x1 = 0.598): 1.4146 ± 0.005
refractive index (333.15 K, x1 = 0.7): 1.4204 ± 0.005
refractive index (333.15 K, x1 = 0.795): 1.4245 ± 0.005
refractive index (333.15 K, x1 = 0.9): 1.4278 ± 0.005
refractive index (333.15 K, x1 = 1): 1.42 ± 0.005
